In patent publication US11300570B2, “Therapeutic and diagnostic methods for cancer” (Genentech, Inc., priority 2016, dated 2022):

Assays:
[1] = test system: locally advanced or metastatic NSCLC (PD-L1-unselected patients); experiment: POPLAR Phase II randomized trial, atezolizumab vs docetaxel, in 2L+ PD-L1-unselected NSCLC, efficacy by tTMB; type: in vivo, human
Source text: (§1) Patients were eligible for enrollment in the POPLAR study if they had locally advanced or metastatic (e.g., stage IIIB, stage IV, or recurrent) NSCLC; disease progression during or following treatment with a prior platinum-containing regimen for locally advanced, unresectable/inoperable, or metastatic NSCLC, or disease recurrence within 6 months of treatment with a platinum-based adjuvant/neoadjuvant regimen; measurable disease, as defined by RECIST v1.1; and an ECOG performance status of 0 or 1. Participants were randomized to receive either atezolizumab at a dose of 1200 mg intravenously every three weeks or docetaxel 75 mg per meter square (mg/m^2) intravenously every three weeks. Treatment with atezolizumab could be continued as long as participants were experiencing clinical benefit, i.e., in the absence of unacceptable toxicity or symptomatic deterioration attributed to disease progression. Pre-treatment tumor samples from patients in the Phase III OAK trial (Clinical Trial ID No.: NCT02008227) were also evaluated for tTMB. Patients were eligible for enrollment in the OAK study if they had locally advanced or metastatic (e.g., stage IIIB, stage IV, or recurrent) NSCLC; disease progression during or following treatment with a prior platinum-containing regimen for locally advanced, unresectable/inoperable, or metastatic NSCLC, or disease recurrence within 6 months of treatment with a platinum-based adjuvant/neoadjuvant regimen; measurable disease, as defined by RECIST v1.1; and an ECOG performance status of 0 or 1. Participants were randomized to receive either atezolizumab at a dose of 1200 mg intravenously every three weeks or docetaxel 75 mg per square meter (mg/m^2) intravenously every three weeks. Treatment with atezolizumab could be continued as long as participants were experiencing clinical benefit, i.e., in the absence of unacceptable toxicity or symptomatic deterioration attributed to disease progression.
Data from the single-arm, PD-L1-selected trials BIRCH and FIR were combined and analyzed to examine the association between tTMB and clinical outcomes among PD-L1-selected patients. Data from the randomized, PD-L1-unselected trial, POPLAR, were analyzed separately and treatment effects between the atezolizumab- and docetaxel-treatment arms were compared.
To identify somatic mutations, tumor samples (e.g., archival tumor samples) were processed as described in Frampton et al. Nat. Biotechnol. 31:1023-31, 2013. Sequencing libraries were constructed to sequence and analyze samples. In addition to standard mutation processing, a mutation load estimation algorithm was applied that, based on the number of somatic mutations and/or rearrangements detected in Table 1 or Table 2, respectively, extrapolates to the exome or the genome as a whole. For purposes of mutation load estimation, all coding short variant alterations, base substitutions, and indels detected in the genes listed in Table 1 and Table 2 were counted. Further, all coding alterations (base substitutions and indels), including synonymous alterations, with the exception of known oncogenic driver mutations, in the genes listed in Table 1 and Table 2 were counted. However, numerous classes of detected alterations were not counted: non-coding alterations; alterations with known (occurring as known somatic alterations in the COSMIC database (Forbes et al. (2014) Nucl. Acids Res. 43:D805-11) and likely (truncations in tumor suppressor genes) functional status; known germline alterations in the dbSNP database (Sherry et al. (2001) Nucleic Acids Res. 29(1):308-11); germline alterations occurring with two or more counts in the ExAC database (Exome Aggregation Consortium (ExAC), Cambridge, Mass.); alterations that are predicted to be germline in the specimen being assessed; and alterations that are predicted to be germline in a cohort of >60,000 clinical specimens. […]

[2] = test system: locally advanced or metastatic NSCLC; experiment: OAK Phase III randomized trial, atezolizumab vs docetaxel, in 2L+ NSCLC, efficacy by tTMB; type: in vivo, human; conditions: 2L+ OAK
Source text: as §1
To identify somatic mutations, tumor samples (e.g., archival tumor samples) were processed as described in Frampton et al. Nat. Biotechnol. 31:1023-31, 2013. Sequencing libraries were constructed to sequence and analyze samples. In addition to standard mutation processing, a mutation load estimation algorithm was applied that, based on the number of somatic mutations and/or rearrangements detected in Table 1 or Table 2, respectively, extrapolates to the exome or the genome as a whole. For purposes of mutation load estimation, all coding short variant alterations, base substitutions, and indels detected in the genes listed in Table 1 and Table 2 were counted. Further, all coding alterations (base substitutions and indels), including synonymous alterations, with the exception of known oncogenic driver mutations, in the genes listed in Table 1 and Table 2 were counted. However, numerous classes of detected alterations were not counted: non-coding alterations; alterations with known (occurring as known somatic alterations in the COSMIC database (Forbes et al. (2014) Nucl. Acids Res. 43:D805-11) and likely (truncations in tumor suppressor genes) functional status; known germline alterations in the dbSNP database (Sherry et al. (2001) Nucleic Acids Res. 29(1):308-11); germline alterations occurring with two or more counts in the ExAC database (Exome Aggregation Consortium (ExAC), Cambridge, Mass.); alterations that are predicted to be germline in the specimen being assessed; and alterations that are predicted to be germline in a cohort of >60,000 clinical specimens. Finally, to calculate the mutation load per megabase, the total number of mutations counted was divided by the coding region target territory of the test, which was 1.110 megabases (Mb) for the current version of the test. The average median coverage value for all samples was 490.
The BEP was defined as patients with at least one tTMB measurement from a baseline tumor sample. […]

[3] = BEP (evaluable for TMB) (n = 174 atezolizumab, 186 docetaxel)
[4] = tTMB score <9 mut/Mb (n = 91 atezolizumab, 87 docetaxel)
[5] = tTMB score <16 mut/Mb (n = 135 atezolizumab, 136 docetaxel)
[6] = tTMB score ≥9 mut/Mb (n = 83 atezolizumab, 99 docetaxel)
[7] = tTMB score ≥16 mut/Mb (n = 39 atezolizumab, 50 docetaxel)

SMILES: CC(=O)O[C@@]12CO[C@@H]1C[C@H](O)[C@@]1(C)C(=O)[C@H](O)C3=C(C)[C@@H](OC(=O)[C@H](O)[C@@H](NC(=O)OC(C)(C)C)c4ccccc4)C[C@@](O)([C@@H](OC(=O)c4ccccc4)[C@H]21)C3(C)C [docetaxel]
- ORR (confirmed per RECIST v1.1) with increasing tTMB ([1]; POPLAR, per treatment arm): did not experience improvement in ORR
- ORR ([1]; POPLAR, BEP (n = 54 atezolizumab vs 38 docetaxel)): 15%
- ORR ([1]; POPLAR, ITT (n = 144 atezolizumab vs 143 docetaxel)): 15% vs 15%
- ORR ([1]; POPLAR, tTMB quantile ≥25%): 10%
- ORR ([1]; POPLAR, tTMB quantile ≥50% (median)): 4%
- ORR ([1]; POPLAR, tTMB quantile ≥75%): 8%
- association of tissue TMB with efficacy ([1]; docetaxel arm, 2L+ NSCLC, randomized setting): not associated with the efficacy
- Median OS [2, 3]: 9.8 months
- Median PFS [2, 3]: 3.81 months
- Median OS ([2]; ITT (n = 425 per arm)): 9.6 months
- Median PFS ([2]; ITT (n = 425 per arm)): 4.0 months
- Median OS [2, 4]: 10.8 months
- Median PFS [2, 4]: 4.1 months
- Median OS [2, 5]: 10.1 months
- Median PFS [2, 5]: 4.0 months
- Median OS [2, 6]: 9.7 months
- Median PFS [2, 6]: 3.6 months
- Median OS [2, 7]: 9.7 months
- Median PFS [2, 7]: 3.5 months
